Source: patent US20220323406A1, “METHODS AND COMPOSITIONS FOR DIFFERENTIATING STEM CELLS” (Massachusetts Institute of Technology, priority 2019, published 2022)

How the values were obtained:
Conditions in all cases: primary screen
[1] = system: ENR+CD organoids (ISC to Paneth cell differentiation); test: Primary screen: CCh-stimulated lysozyme secretion LYZ.S, 2.5-D 384-well ENR+CD organoid differentiation; assay type: cell-based, mouse
From the text: (§1) High-throughput screening.

[2] = system: ENR+CD organoids (ISC to Paneth cell differentiation); test: Primary screen: basal (non-stimulated) lysozyme secretion LYZ.NS, 2.5-D 384-well ENR+CD organoid differentiation; assay type: cell-based, mouse
From the text: as §1

[3] = system: ENR+CD organoids; test: Primary screen: ATP (CellTiter-Glo 3D, CTG) cell number/viability, 2.5-D 384-well ENR+CD organoids;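 further: compounds given at plating and again on day 3 over a 6-day differentiation from ENR+CV stem-cell-enriched precursors, ATP measured on day 6, plate median as control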
[4] = 1st dose row of the treatment (0.08 uM by row order; dose not reprinted)
[5] = 2nd dose row of the treatment (0.40 uM by row order; dose not reprinted)
[6] = 3rd dose row of the treatment (2.00 uM by row order; dose not reprinted)
[7] = 4th dose row of the treatment (10.00 uM by row order; dose not reprinted)

Structure (SMILES) | Dose.FC.LYZ.S ([1]; dose 0.08 uM) [log2 fold change] | Dose.FC.LYZ.S ([1]; dose 0.40 uM) [log2 fold change] | Dose.FC.LYZ.S ([1]; dose 2.00 uM) [log2 fold change] | Dose.FC.LYZ.S ([1]; dose 10.00 uM) [log2 fold change] | Dose.FC.LYZ.NS ([2]; dose 0.08 uM) [log2 fold change] | Z.LYZ.NS (standard z score) ([2]; dose 0.08 uM) | Dose.FC.LYZ.NS ([2]; dose 0.40 uM) [log2 fold change] | Z.LYZ.NS (standard z score) ([2]; dose 0.40 uM) | Dose.FC.LYZ.NS ([2]; dose 2.00 uM) [log2 fold change] | Z.LYZ.NS (standard z score) ([2]; dose 2.00 uM) | Dose.FC.LYZ.NS ([2]; dose 10.00 uM) [log2 fold change] | Z.LYZ.NS (standard z score) ([2]; dose 10.00 uM) | Dose.FC.CTG ([3]; dose 0.08 uM) [log2 fold change] | Z.CTG (standard z score) ([3]; dose 0.08 uM) | Dose.FC.CTG ([3]; dose 0.40 uM) [log2 fold change] | Z.CTG (standard z score) ([3]; dose 0.40 uM) | Dose.FC.CTG ([3]; dose 2.00 uM) [log2 fold change] | Z.CTG (standard z score) ([3]; dose 2.00 uM) | Dose.FC.CTG ([3]; dose 10.00 uM) [log2 fold change] | Z.CTG (standard z score) ([3]; dose 10.00 uM) | further results
C[C@H]1COC2(CCN(c3nc(=O)c4cc(C(F)(F)F)cc([N+](=O)[O-])c4s3)CC2)O1 (racemic) [BTZ043 Racemate] | 0.199 | 0.252 | 0.038 | 0.070 | 0.131 | 1.138 | 0.186 | 1.619 | 0.089 | 0.776 | 0.100 | 0.870 | 0.497 | 1.187 | 0.545 | 1.303 | 0.063 | 0.150 | 0.327 | 0.782 | 
Cl.N[C@@H]1C[C@H]1c1ccccc1 (racemic) [Tranylcypromine (2-PCPA) HCl] | 0.050 | −0.037 | 0.036 | −0.096 | 0.033 | 0.285 | −0.049 | −0.426 | 0.049 | 0.423 | −0.045 | −0.389 | −0.064 | −0.153 | 0.062 | 0.148 | 0.053 | 0.128 | −0.533 | −1.274 | 
COc1cc2c(cc1O)CC[C@@H]1[C@@H]2CC[C@]2(C)[C@@H](O)CC[C@@H]12 [2-Methoxyestradiol (2-MeOE2)] | 0.189 | 0.270 | 0.029 | −0.278 | 0.021 | 0.186 | 0.065 | 0.566 | 0.005 | 0.041 | −0.139 | −1.209 | 0.299 | 0.714 | 0.401 | 0.957 | 0.227 | 0.543 | −0.672 | −1.606 | SSMD.LYZ.S_Rep (strictly standardized mean difference) [1, 4]: 1.015; Z.LYZ.S (standard z score) [1, 4]: 1.224; SSMD.LYZ.S_Rep (strictly standardized mean difference) [1, 5]: 0.831; Z.LYZ.S (standard z score) [1, 5]: 1.747; SSMD.LYZ.S_Rep (strictly standardized mean difference) [1, 6]: 0.144; Z.LYZ.S (standard z score) [1, 6]: 0.190; SSMD.LYZ.S_Rep (strictly standardized mean difference) [1, 7]: −1.135; Z.LYZ.S (standard z score) [1, 7]: −1.795; SSMD.LYZ.NS_Rep (strictly standardized mean difference) [2, 4]: 0.077; SSMD.LYZ.NS_Rep (strictly standardized mean difference) [2, 5]: 0.227; SSMD.LYZ.NS_Rep (strictly standardized mean difference) [2, 6]: 0.049; SSMD.LYZ.NS_Rep (strictly standardized mean difference) [2, 7]: −0.826; SSMD.CTG.Rep (strictly standardized mean difference) [3, 4]: 0.407; SSMD.CTG.Rep (strictly standardized mean difference) [3, 5]: 0.930; SSMD.CTG.Rep (strictly standardized mean difference) [3, 6]: 0.461; SSMD.CTG.Rep (strictly standardized mean difference) [3, 7]: −0.878
